According to patent EP2998294A1, “Naphthyl sulfonamide phenyl derivatives as KEAP-1 modulators for the treatment of diabetes, obesity, dyslipidemia and related disorders” (SANOFI, priority 2014, dated 2016):

Molecular target: T1, human Keap1 kelch domain (amino acids Ala321-Thr609) (Homo sapiens, UniProt Q14145)
T1 construct: human Keap1 kelch domain (amino acids Ala321-Thr609)
Test: Keap1-Nrf2 peptide binding assay (fluorescence polarisation)
Conditions: binding of Keap1 kelch domain (20 nM) to fluorescently labeled Nrf2 peptide (50 nM)
Procedure: A fluorescence polarisation assay was used to measure binding of the human Keap1 kelch domain (amino acids Ala321-Thr609) to a fluorescently labeled peptide containing a Keap1 binding site of human Nrf2 (Alexa633-AFFAQLQLDEETGEFL; JPT Technologies, Berlin, Germany). Two microliters of test compound in reaction buffer (phosphate-buffered saline, 2 mM DL-dithiothreitol, 0.015 % (v/v) Brij-35) containing 6 % (v/v) DMSO were mixed with two microliters of the Keap1 kelch domain in reaction buffer in a black 384-well small volume microtiter plate and incubated at ambient temperature for 15 minutes. Thereafter, two microliters were added of the fluorescently labeled Nrf2 peptide in reaction buffer, and the mixture was incubated for a further 30 minutes at ambient temperature. Final concentrations of the Keap1 kelch domain and the fluorescently labeled Nrf2 peptide were 20 nM and 50 nM, respectively.
Fluorescence polarization (FP) was measured at excitation and emission wavelengths of 635 nm and 660 nm, respectively. Positive controls for binding (two microliters of reaction buffer containing 6 % (v/v) DMSO instead of test compound in the same buffer) and negative controls (as positive controls, but without Keap1 kelch domain) were included on each microtiter plate. Data were expressed as percent-inhibition values: percentinhibition = 100⋅(1-(|FPcompound-FPnegative controle|)/(|FPpositive controle-FPnegative controle|)) [formula]
IC50 values were determined by testing different compound concentrations and fitting the resulting percent-inhibition values to the following equation using XLFit4: percentinhibition = A + (B-A)/(1 + (((IC50)/([Compound])))^D) [formula]
Parameter A was set to zero, pre-fit values for parameters B and D were set to 100 and 1, respectively.

T1 sequence (Q14145 321-609): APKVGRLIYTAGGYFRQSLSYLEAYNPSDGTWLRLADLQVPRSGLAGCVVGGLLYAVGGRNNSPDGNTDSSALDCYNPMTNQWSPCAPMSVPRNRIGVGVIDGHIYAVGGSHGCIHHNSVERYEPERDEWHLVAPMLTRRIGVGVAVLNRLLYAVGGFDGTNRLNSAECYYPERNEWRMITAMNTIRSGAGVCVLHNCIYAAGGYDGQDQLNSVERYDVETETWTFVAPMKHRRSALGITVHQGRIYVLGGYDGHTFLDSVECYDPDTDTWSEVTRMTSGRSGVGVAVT

SMILES | IC50 [µM]
O=C(O)c1ccc(F)c(-c2ccc(NS(=O)(=O)c3c(Cl)cc(C(F)(F)F)cc3Cl)c3ccccc23)c1 [Example 81, 3-[4-[[2,6-dichloro-4-(trifluoromethyl)phenyl]sulfonylamino]-1-naphthyl]-4-fluoro-benzoic acid] | 0.7
Cc1ccc(Cl)cc1S(=O)(=O)Nc1ccc(-c2cc(C(=O)O)ccc2F)c2ccccc12 [Example 87, 3-[4-[(5-chloro-2-methylphenyl)sulfonylamino]-1-naphthyl]-4-fluorobenzoic acid] | 1
O=C(O)c1ccc(F)c(-c2ccc(NS(=O)(=O)c3cc(F)cc(F)c3Cl)c3ccccc23)c1 [Example 92, 3-[4-[(2-chloro-3,5-difluorophenyl)sulfonylamino]-1-naphthyl]-4-fluorobenzoic acid] | 5.3

Same assay, conditions: binding of Keap1 kelch domain (20 nM) to fluorescently labeled Nrf2 peptide (50 nM); read-out: IC50

IC50 [µM] | SMILES
4.4 | O=C(O)c1ccc(F)c(-c2ccc(NS(=O)(=O)c3ccc(Cl)c(C(F)(F)F)c3)c3ccccc23)c1 [Example 75, 3-[4-[[4-chloro-3-(trifluoromethyl)phenyl]sulfonylamino]-1-naphthyl]-4-fluoro-benzoic acid]
2.4 | O=C(O)c1ccc(F)c(-c2ccc(NS(=O)(=O)c3cc(Cl)ccc3Cl)c3ccccc23)c1 [Example 76, 3-[4-[(2,5-dichlorophenyl)sulfonylamino]-1-naphthyl]-4-fluoro-benzoic acid]
3.7 | Cc1c(S(=O)(=O)Nc2ccc(-c3cc(C(=O)O)ccc3F)c3ccccc23)cnn1-c1ccccc1 [Example 77, 4-fluoro-3-[4-[(5-methyl-1-phenyl-pyrazol-4-yl)sulfonylamino]-1-naphthyl]benzoic acid]
9.7 | Cn1cc(S(=O)(=O)Nc2ccc(-c3cc(C(=O)O)ccc3F)c3ccccc23)c(C(F)(F)F)n1 [Example 78, 4-fluoro-3-[4-[[1-methyl-3-(trifluoromethyl)pyrazol-4-yl]sulfonylamino]-1-naphthyl]benzoic acid]
0.4 | Cc1nn(C)c(C)c1S(=O)(=O)Nc1ccc(-c2cc(C(=O)O)ccc2F)c2ccccc12 [Example 79, 4-fluoro-3-[4-[(1,3,5-trimethylpyrazol-4-yl)sulfonylamino]-1-naphthyl]benzoic acid]
1.9 | Cc1nc(C)c(S(=O)(=O)Nc2ccc(-c3cc(C(=O)O)ccc3F)c3ccccc23)s1 [Example 80, 3-[4-[(2,4-dimethylthiazol-5-yl)sulfonylamino]-1-naphthyl]-4-fluorobenzoic acid]
5.1 | O=C(O)c1ccc(F)c(-c2ccc(NS(=O)(=O)c3cc(F)c(F)cc3Cl)c3ccccc23)c1 [Example 82, 3-[4-[(2-chloro-4,5-difluorophenyl)sulfonylamino]-1-naphthyl]-4-fluorobenzoic acid]
2.2 | COc1ccc(S(=O)(=O)Nc2ccc(-c3cc(C(=O)O)ccc3F)c3ccccc23)c(OC)c1 [Example 83, 3-[4-[(2,4-dimethoxyphenyl)sulfonylamino]-1-naphthyl]-4-fluoro-benzoic acid]
1.7 | Cc1c(S(=O)(=O)Nc2ccc(-c3cc(C(=O)O)ccc3F)c3ccccc23)cnn1CC(C)C [Example 84, 4-fluoro-3-[4-[(1-isobutyl-5-methyl-pyrazol-4-yl)sulfonylamino]-1-naphthyl]benzoic acid]
0.9 | O=C(O)c1ccc(F)c(-c2ccc(NS(=O)(=O)c3cc(Cl)sc3Cl)c3ccccc23)c1 [Example 85, 3-[4-[(2,5-dichloro-3-thienyl)sulfonylamino]-1-naphthyl]-4-fluoro-benzoic acid]
1.5 | Cc1nn(-c2ccccc2)c(C)c1S(=O)(=O)Nc1ccc(-c2cc(C(=O)O)ccc2F)c2ccccc12 [Example 86, 3-[4-[(3,5-dimethyl-1-phenyl-pyrazol-4-yl)sulfonylamino]-1-naphthyl]-4-fluorobenzoic acid]
1.3 | Cc1cc(S(=O)(=O)Nc2ccc(-c3cc(C(=O)O)ccc3F)c3ccccc23)c(Cl)cc1Cl [Example 88, 3-[4-[(2,4-dichloro-5-methylphenyl)sulfonylamino]-1-naphthyl]-4-fluorobenzoic acid]
2.5 | COc1cc(C)ccc1S(=O)(=O)Nc1ccc(-c2cc(C(=O)O)ccc2F)c2ccccc12 [Example 89, 4-fluoro-3-[4-[(2-methoxy-4-methylphenyl)sulfonylamino]-1-naphthyl]benzoic acid]
1.2 | Cc1c(S(=O)(=O)Nc2ccc(-c3cc(C(=O)O)ccc3F)c3ccccc23)cnn1C1CCCC1 [Example 90, 3-[4-[(1-cyclopentyl-5-methyl-pyrazol-4-yl)sulfonylamino]-1-naphthyl]-4-fluorobenzoic acid]
2.2 | COc1ccc(F)c(S(=O)(=O)Nc2ccc(-c3cc(C(=O)O)ccc3F)c3ccccc23)c1 [Example 91, 4-fluoro-3-[4-[(2-fluoro-5-methoxyphenyl)sulfonylamino]-1-naphthyl]benzoic acid]
6.5 | Cc1c(S(=O)(=O)Nc2ccc(-c3cc(C(=O)O)ccc3F)c3ncccc23)sc2ccc(Cl)cc12 [Example 93, 3-[5-[(5-chloro-3-methyl-benzothiophen-2-yl)sulfonylamino]-8-quinolyl]-4-fluoro-benzoic acid]
3 | Cc1c(S(=O)(=O)Nc2ccc(-c3cc(C(=O)O)ccc3F)c3ncccc23)sc2cccc(F)c12 [Example 94, 4-fluoro-3-[5-[(4-fluoro-3-methyl-benzothiophen-2-yl)sulfonylamino]-8-quinolyl]benzoic acid]
2.2 | CCCCCCCCn1nc(C)c(S(=O)(=O)Nc2ccc(-c3cc(C(=O)O)ccc3F)c3ncccc23)c1C [Example 95, 3-[5-[(3,5-dimethyl-1-octyl-pyrazol-4-yl)sulfonylamino]-8-quinolyl]-4-fluorobenzoic acid]
0.9 | Cc1c(S(=O)(=O)Nc2ccc(-c3cc(C(=O)O)ccc3F)c3ncccc23)c2ccccc2n1C [Example 96, 3-[5-[(1,2-dimethylindol-3-yl)sulfonylamino]-8-quinolyl]-4-fluoro-benzoic acid]
5.5 | Cn1ccc2c(S(=O)(=O)Nc3ccc(-c4cc(C(=O)O)ccc4F)c4ncccc34)cccc21 [Example 97, 4-fluoro-3-[5-[(1-methylindol-4-yl)sulfonylamino]-8-quinolyl]benzoic acid]
